Drawing on patent US11261177B2, “Benzoxazinone derivatives useful as herbicides” (REDAG CROP PROTECTION LTD, priority 2017, dated 2022), this text covers pest or weed control for eleven molecules.

Holding throughout (type): in vivo
For experiment [1], the system named is Stellaria media—Chickweed. Briefly: Post-emergence herbicidal assay, 96 cell trays, glasshouse. The following applies: 168 h, second trial (Table 2), assessed 7 days after treatment, read-out: % control of plant growth; for pest or weed control at 200 g/ha: 0.2 kg/ha; for pest or weed control at 1000 g/ha: 1 kg/ha; for pest or weed control at 5000 g/ha: 5 kg/ha. The method, then: (§1) The compounds were screened at three concentrations (0.2, 1 and 5 kg/ha) against 2 weed species (Stellaria media—Chickweed and Lolium perenne). The seeds were sown in the cells of 96 cell trays (4-6 seeds per cell). For the pre-emergence assay, 75 μL of a suspension of the test compound, at the above doses, was added on top of the soil 1 day after sowing. For the post-emergence assay, the seedlings were sprayed with 200 μL of a suspension of the test compound two weeks after sowing. The formulation used is 25% acetone and 75% water/0.01% Tween 20. Each treatment was replicated three times. The plants were kept in a glasshouse (uncontrolled conditions) and assessed 7 days after treatment. A small number of compounds were tested in a first trial. A larger number of compounds were tested in a second trial. The assessment was based on the % control of plant growth in each cell.

Experiment [2] relates to Lolium perenne. The experiment is described as above. The following applies: 168 h, second trial (Table 2), Lollium, assessed 7 days after treatment, read-out: % control of plant growth; for pest or weed control at 200 g/ha: 0.2 kg/ha; for pest or weed control at 1000 g/ha: 1 kg/ha; for pest or weed control at 5000 g/ha: 5 kg/ha. On the procedure:
as §1

The subject of experiment [3] is Stellaria media—Chickweed. Briefly: Pre-emergence herbicidal assay, 96 cell trays, glasshouse. The following applies: 168 h, second trial (Table 2), assessed 7 days after treatment, read-out: % control of plant growth; for pest or weed control at 200 g/ha: 0.2 kg/ha; for pest or weed control at 1000 g/ha: 1 kg/ha; for pest or weed control at 5000 g/ha: 5 kg/ha. On the procedure: as §1

The subject of experiment [4] is Lolium perenne. The experiment is described as above. The following applies: 168 h, second trial (Table 2), Lollium, assessed 7 days after treatment, read-out: % control of plant growth; for pest or weed control at 200 g/ha: 0.2 kg/ha; for pest or weed control at 1000 g/ha: 1 kg/ha; for pest or weed control at 5000 g/ha: 5 kg/ha. On the procedure:
as §1

Consider `COC(=O)C(C)N1C(=O)C2(CC2)Oc2cc(F)c(N3C(=O)c4ccc(F)cc4C3=O)cc21` (stereo not drawn) [Example 16], for which the pest or weed control at 200 g/ha in experiment [1] is 80 to 100%; with Lolium perenne [2], 20 to 80%; in experiment [3], 80 to 100%; in the experiment on Lolium perenne [4], less than 20%. In addition, the pest or weed control at 1000 g/ha lay in the range of 80 to 100% in experiment [1], 20 to 80% in the experiment with Lolium perenne [2], 80 to 100% in experiment [3] and 20 to 80% with Lolium perenne [4]. Moreover, the pest or weed control at 5000 g/ha was in the range of 80 to 100% in experiment [1], 80 to 100% in the experiment on Lolium perenne [2], 80 to 100% in experiment [3] and 20 to 80% with Lolium perenne [4].
`COC(=O)C(C)N1C(=O)C2(CC2)Oc2cc(F)c(N3C(=O)C=C(C(F)(F)F)C3=O)cc21` (stereo not drawn) [Example 17]: the pest or weed control at 200 g/ha in experiment [1] is less than 20%; with Lolium perenne [2], less than 20%; in experiment [3] it was 20 to 80%; in the experiment on Lolium perenne [4], less than 20%. Moreover, the pest or weed control at 1000 g/ha in experiment [1] was 20 to 80%; in the experiment on Lolium perenne [2], less than 20%; in experiment [3], 20 to 80%; with Lolium perenne [4], 20 to 80%. In addition, the pest or weed control at 5000 g/ha in experiment [1] was 20 to 80%; in the experiment on Lolium perenne [2] it was less than 20%; in experiment [3], 80 to 100%; in the experiment with Lolium perenne [4], 20 to 80%.
Consider `CCOC(=O)C(C)N1C(=O)C2(CC2)Oc2cc(F)c(N3C(=O)C=C(C(F)(F)F)C3=O)cc21` (stereo not drawn) [Example 20], for which the pest or weed control at 200 g/ha is 20 to 80% in experiment [1], less than 20% in the experiment on Lolium perenne [2], less than 20% in experiment [3] and less than 20% in the experiment with Lolium perenne [4]. For the same molecule, the pest or weed control at 1000 g/ha was 80 to 100% in experiment [1], less than 20% with Lolium perenne [2], 20 to 80% in experiment [3] and less than 20% with Lolium perenne [4]. Moreover, the pest or weed control at 5000 g/ha in experiment [1] is 80 to 100%; in the experiment with Lolium perenne [2] it was less than 20%; in experiment [3], 20 to 80%; with Lolium perenne [4], less than 20%.
Consider `CCCN1C(=O)C2(CC2)Oc2cc(F)c(N3C(=O)c4ccc(F)cc4C3=O)cc21` [Example 22], for which the pest or weed control at 200 g/ha in experiment [1] was 80 to 100%; with Lolium perenne [2] it was 20 to 80%; in experiment [3], 80 to 100%; with Lolium perenne [4], less than 20%. For the same molecule, the pest or weed control at 1000 g/ha lay in the range of 80 to 100% in experiment [1], 20 to 80% with Lolium perenne [2], 80 to 100% in experiment [3] and 20 to 80% in the experiment with Lolium perenne [4]. Also, the pest or weed control at 5000 g/ha lay in the range of 80 to 100% in experiment [1], 80 to 100% in the experiment on Lolium perenne [2], 80 to 100% in experiment [3] and 20 to 80% with Lolium perenne [4].
Regarding `C#CCN1C(=O)C2(CCC2)Oc2cc(F)c(N3C(=O)c4ccc(F)cc4C3=O)cc21` [Example 23], the pest or weed control at 200 g/ha in experiment [1] was 80 to 100%; in the experiment on Lolium perenne [2], less than 20%; in experiment [3], less than 20%; in the experiment on Lolium perenne [4], less than 20%. For the same molecule, the pest or weed control at 1000 g/ha in experiment [1] was 80 to 100%; in the experiment on Lolium perenne [2], less than 20%; in experiment [3], 80 to 100%; in the experiment with Lolium perenne [4] it was less than 20%. The pest or weed control at 5000 g/ha in experiment [1] was 80 to 100%; in the experiment on Lolium perenne [2], less than 20%; in experiment [3], 80 to 100%; with Lolium perenne [4], 20 to 80%.
Take `C#CCN1C(=O)C2(CCC2)Oc2cc(F)c(N3C(=O)C=C(C(F)(F)F)C3=O)cc21` [Example 24]: the pest or weed control at 200 g/ha (in experiment [1]; in the experiment on Lolium perenne [2]; in experiment [3]; in the experiment on Lolium perenne [4]) was less than 20% in each case. The pest or weed control at 1000 g/ha in experiment [1] was less than 20%; with Lolium perenne [2], less than 20%; in experiment [3] it was 20 to 80%; in the experiment with Lolium perenne [4] it was 20 to 80%. The pest or weed control at 5000 g/ha was less than 20% in experiment [1], less than 20% in the experiment with Lolium perenne [2], 20 to 80% in experiment [3] and 20 to 80% with Lolium perenne [4].
In the case of `C#CCN1C(=O)C2(CN(C(=O)OCc3ccccc3)C2)Oc2cc(F)c(N3C(=O)c4ccc(F)cc4C3=O)cc21` [Example 25], the pest or weed control at 200 g/ha in experiment [1] is less than 20%; in the experiment with Lolium perenne [2], less than 20%; in experiment [3], 20 to 80%; with Lolium perenne [4], less than 20%. Further, the pest or weed control at 1000 g/ha in experiment [1] is less than 20%; in the experiment with Lolium perenne [2] it was less than 20%; in experiment [3], 20 to 80%; with Lolium perenne [4], less than 20%. In addition, the pest or weed control at 5000 g/ha in experiment [1] was less than 20%; in the experiment on Lolium perenne [2], less than 20%; in experiment [3], 20 to 80%; in the experiment on Lolium perenne [4] it was less than 20%.
Take `O=C1c2ccc(F)cc2C(=O)N1c1cc2c(cc1F)OC1(CC1)C(=O)N2CC#CI` [Example 30, 5-Fluoro-2-(7-fluoro-4-(3-iodoprop-2-yn-1-yl)-3-oxo-3,4-dihydrospiro[benzo[b][1,4]oxazine-2,1′-cyclopropan]-6-yl)isoindoline-1,3-dione]: the pest or weed control at 200 g/ha was 80 to 100% in experiment [1], less than 20% in the experiment on Lolium perenne [2], 80 to 100% in experiment [3] and 20 to 80% in the experiment on Lolium perenne [4]. Also, the pest or weed control at 1000 g/ha in experiment [1] was 80 to 100%; in the experiment on Lolium perenne [2], less than 20%; in experiment [3] it was 80 to 100%; in the experiment on Lolium perenne [4], 20 to 80%. In addition, the pest or weed control at 5000 g/ha in experiment [1] is 80 to 100%; in the experiment on Lolium perenne [2] it was less than 20%; in experiment [3], 80 to 100%; with Lolium perenne [4], 80 to 100%.
`C#CCN1C(=O)C2(CCC2)Oc2cc(F)c(-n3c(=O)cc(C(F)(F)F)[nH]c3=O)cc21` [Example 33, 3-(7-Fluoro-3-oxo-4-(prop-2-yn-1-yl)-3,4-dihydrospiro[benzo[b][1,4]oxazine-2,1′-cyclobutan]-6-yl)-6-(trifluoromethyl)pyrimidine-2,4(1H,3H)-dione]: the pest or weed control at 200 g/ha (in experiment [1]; in the experiment with Lolium perenne [2]; in experiment [3]; in the experiment with Lolium perenne [4]) was less than 20% each time. In addition, the pest or weed control at 1000 g/ha in experiment [1] was less than 20%; with Lolium perenne [2], less than 20%; in experiment [3], 20 to 80%; in the experiment with Lolium perenne [4] it was less than 20%. For the same molecule, the pest or weed control at 5000 g/ha was 20 to 80% in experiment [1], less than 20% in the experiment with Lolium perenne [2], 20 to 80% in experiment [3] and less than 20% in the experiment on Lolium perenne [4].
In the case of `CC(C(=O)O)N1C(=O)C2(CC2)Oc2cc(F)c(N3C(=O)c4ccc(F)cc4C3=O)cc21` (stereo not drawn) [Example 35], the pest or weed control at 200 g/ha is 80 to 100% in experiment [1], less than 20% with Lolium perenne [2], less than 20% in experiment [3] and less than 20% with Lolium perenne [4]. The pest or weed control at 1000 g/ha in experiment [1] is 80 to 100%; in the experiment with Lolium perenne [2], 20 to 80%; in experiment [3], 20 to 80%; with Lolium perenne [4] it was 20 to 80%. Moreover, the pest or weed control at 5000 g/ha in experiment [1] lay in the range of 80 to 100%; in the experiment with Lolium perenne [2], 20 to 80%; in experiment [3] it was 20 to 80%; in the experiment with Lolium perenne [4], 20 to 80%.
Turning to `O=C1c2ccc(F)cc2C(=O)N1c1cc2c(cc1F)OC1(CC1)C(=O)N2CC1CO1` (stereo not drawn) [Example 36, 5-Fluoro-2-(7-fluoro-4-(oxiran-2-ylmethyl)-3-oxo-3,4-dihydrospiro[benzo[b][1,4]oxazine-2,1′-cyclopropan]-6-yl)isoindoline-1,3-dione], the pest or weed control at 200 g/ha in experiment [1] is 80 to 100%; in the experiment with Lolium perenne [2], less than 20%; in experiment [3], less than 20%; in the experiment on Lolium perenne [4], less than 20%. The pest or weed control at 1000 g/ha in experiment [1] lay within 80 to 100%; in the experiment on Lolium perenne [2] it was 20 to 80%; in experiment [3], 20 to 80%; in the experiment with Lolium perenne [4], 20 to 80%. For the same molecule, the pest or weed control at 5000 g/ha lay in the range of 80 to 100% in experiment [1], 20 to 80% in the experiment with Lolium perenne [2], 80 to 100% in experiment [3] and 20 to 80% in the experiment on Lolium perenne [4].
